Here are results for two compounds from patent US10894945B2, “Methods for improving proliferation and stemness of limbal stem cells” (CATHOLIC UNIVERSITY INDUSTRY ACADEMIC COOPERATION FOUNDATION, priority 2016, dated 2021).

Experiment [1] relates to limbal stem cells (LSCs) in limbal explant outgrowth cultures. In words: Flow cytometry of JC1 low side population in limbal explant outgrowth cultures. Type of experiment: cell-based, human. The note with it: for % JC1^low, Mean: Explant culture, Table 1; for JC1 exclusion cell cohort (JC1^low) / percentage in a lower left quadrant (LLQ): limbal explant culture; for JC1 exclusion cell cohort (JC1^low): 10 μM IWP2 or 3 μM CHIR99021 (FIG. 3); for percentage in a lower left quadrant (LLQ): 10 μM IWP2 or 3 μM CHIR99021, FSC/SSC, stem/precursor somatic cells (FIG. 3). The method, then:
First, a 0.4-μm pore polyester membrane insert (Costar, NY) with a diameter of 25 mm was put into a 6-well plate, and pre-equilibrated overnight cultured in a supplemented hormonal epithelial medium (SHEM). The SHEM was composed of 950 ml of Dulbecco's modified minimal essential medium (DMEM)/F-12 medium in which DMEM and Ham F12 are mixed in a ratio of 1:1, 50 ml of fetal bovine serum (FBS), 5 ng of a human recombinant epidermal growth factor (EGF), 28 mg of phosphoethanolamine, lx insulin-transferrin-selenium (ITS, Gibco), and 1× penicillin-streptomycin (Gibco). […] After 72 hours of culturing, the presence of an encircling island of outgrowth cells were confirmed, and then the medium was replaced with a fresh medium that just covered a surface of the explant, every 72 hours. Here, the cells were cultured with 10 μM of the Wnt inhibitor (IWP2) or 3 μM of the GSK3 inhibitor (CHIR99021), and then experiments that will be described below were performed. In order to determine a relative cell size and ABCG2 efflux activity, cells from limal explant outgrowth cultures were harvested by treatment with trypsin, the collected cells were seeded in 6-well plates at a cell density of 2×10^4/well, treated with 250 nM JC1 dye and incubated for 45 minutes. Afterward, the cells were detached again by trypsin treatment and diluted with FACS buffer to perform FACS analysis. JC1 is a dye binding to mitochondria in cells, efflux of the JC1 dye from cells in a side population strongly expressing ATP-binding cassette sub-family G member 2 (ABCG2) results in inhibition of mitochondria staining. Therefore, flow cytometry was performed on the cells treated with the JC1 dye using a FACS Calibur (BD Biosciences) at an emission wavelength of 531(green)/585(orange), and the side population (JC1^low) that was not stained with JC1 was measured.

The test system of experiment [2] is limbal explant outgrowth cells. The experiment in a line: Colony forming efficiency assay of cells harvested from explant outgrowth cultures. Type of experiment: cell-based, human. To be noted: cells from treated limbal explant outgrowth; cultured up to day 14; compared with control (FIG. 5). The method, then: First, a 0.4-μm pore polyester membrane insert (Costar, NY) with a diameter of 25 mm was put into a 6-well plate, and pre-equilibrated overnight cultured in a supplemented hormonal epithelial medium (SHEM). The SHEM was composed of 950 ml of Dulbecco's modified minimal essential medium (DMEM)/F-12 medium in which DMEM and Ham F12 are mixed in a ratio of 1:1, 50 ml of fetal bovine serum (FBS), 5 ng of a human recombinant epidermal growth factor (EGF), 28 mg of phosphoethanolamine, lx insulin-transferrin-selenium (ITS, Gibco), and 1× penicillin-streptomycin (Gibco). […] After 72 hours of culturing, the presence of an encircling island of outgrowth cells were confirmed, and then the medium was replaced with a fresh medium that just covered a surface of the explant, every 72 hours. Here, the cells were cultured with 10 μM of the Wnt inhibitor (IWP2) or 3 μM of the GSK3 inhibitor (CHIR99021), and then experiments that will be described below were performed.

Experiment [3] concerns human limbal explant. In words: Limbal explant outgrowth culture: outgrowth proliferation, area, cell yield, cell density. The format is cell-based. To be noted: for stained outgrowth area / cell yields: 10 μM IWP2 or 3 μM CHIR99021; for stained outgrowth area: Commassie blue R 250 staining, compared with control (FIG. 2a, 2b); for cell yields: trypan blue, hemocytometer, compared with normal control (FIG. 2c); for outgrowth proliferation rates of the explant: 10 μM IWP2 or 3 μM CHIR99021 in medium, phase contrast microscope, day 4 and 8, compared with control (FIG. 1); for Cell count, Mean: Explant culture, Table 1. The method, then:
The corneal limbal tissue satisfying the above-described conditions was splitted into […] using a surgical instrument on a horizontal sterile-air-flow hood, and the conjunctival edge of each quarter was immersed shortly in 1% trypan blue (Sigma, USA) to stain conjunctival stroma, and all remnants of conjunctiva were carefully removed using conjunctival scissors. Afterward, a sclera tissue was trimmed away, and then each limbal strip was prepared after being cut to a thickness of 0.5 mm using a sharp blade. First, a 0.4-μm pore polyester membrane insert (Costar, NY) with a diameter of 25 mm was put into a 6-well plate, and pre-equilibrated overnight cultured in a supplemented hormonal epithelial medium (SHEM). The SHEM was composed of 950 ml of Dulbecco's modified minimal essential medium (DMEM)/F-12 medium in which DMEM and Ham F12 are mixed in a ratio of 1:1, 50 ml of fetal bovine serum (FBS), 5 ng of a human recombinant epidermal growth factor (EGF), 28 mg of phosphoethanolamine, lx insulin-transferrin-selenium (ITS, Gibco), and 1× penicillin-streptomycin (Gibco). Afterward, the limbal tissue cut into 8 sections with a length of 4 mm according to the method described in Example 1-1 was put on a polyester membrane to dispose an epithelial part face-up, and cultured under an air-liquid interface condition. After 72 hours of culturing, the presence of an encircling island of outgrowth cells were confirmed, and then the medium was replaced with a fresh medium that just covered a surface of the explant, every 72 hours. Here, the cells were cultured with 10 μM of the Wnt inhibitor (IWP2) or 3 μM of the GSK3 inhibitor (CHIR99021), and then experiments that will be described below were performed. To identify effects of the Wnt/β-catenin signaling on the limbal explant outgrowth cultures, cells were cultured by adding 10 μM of the Wnt inhibitor IWP2 or 3 μM of the Wnt signaling agonist CHIR99021 as a GSK3 inhibitor to a medium under the culture conditions for a human limbal explant cultures according to the methods described in Examples 1-1 and 1-2, and explant outgrowth proliferation was observed using a phase contrast microscope on day 4 and 8. […] In addition, cells were harvested by treating the limbal explant cultures with trypsin, stained with a 0.4% trypan blue solution, and cell yields were measured using a hemocytometer and then cell densities were quantitatively analyzed.

Experiment [4] deals with human limbal epithelial cells. The experiment in a line: Flow cytometry of JC1 low ratio in isolated limbal epithelial cell (single cell) culture. The format is cell-based. The note with it: Table 1. The method, then: (§1) The limbal tissue divided according to the method described in Example 1-1 was treated with 2 mg/ml Dispase II (Roche, Indianapolis, Ind.) diluted with keratinocyte medium (KSFM; Invitrogen, Carlsbad, Calif.) and overnight cultured at 4° C. Afterward, a limbal epithelium layer was gently sloughed off from its stromal base under the dissecting microscope, the epithelium layer was treated with TrypLE (GIBCO, Denmark) and cultured for 10 minutes, and then triturated with a pipette to generate a single cell suspension. These cells were seeded into a 25T flask coated with human type I collagen (PureCol^R, Biomatrix, SanDiego, Calif.) to be dispensed at a density of 2×10^5 cells/flask, and cultured in Cnt50 medium (Cell-N-Tec, Bern, Switzerland) complemented with bovine pituitary extract for up to 2 weeks.
In order to determine a relative cell size and ABCG2 efflux activity, cells from limal explant outgrowth cultures were harvested by treatment with trypsin, the collected cells were seeded in 6-well plates at a cell density of 2×10^4/well, treated with 250 nM JC1 dye and incubated for 45 minutes. […] Therefore, flow cytometry was performed on the cells treated with the JC1 dye using a FACS Calibur (BD Biosciences) at an emission wavelength of 531(green)/585(orange), and the side population (JC1^low) that was not stained with JC1 was measured. […]
On the technique in general: Flow cytometry measures light scatter and fluorescence of single cells or particles in a stream.

The subject of experiment [5] is LSC markers p63α and ABCG2, differentiation marker Krt3. The experiment in a line: Western blot of LSC markers and differentiation marker in limbal explant outgrowth cells. Type of experiment: cell-based, human. To be noted: for expression of the differentiation marker Krt3: western blot (FIG. 4); for protein expression of LSC marker ABCG2 / protein expression of LSC marker p63α: western blot, compared with control (FIG. 4). The method, then:
First, a 0.4-μm pore polyester membrane insert (Costar, NY) with a diameter of 25 mm was put into a 6-well plate, and pre-equilibrated overnight cultured in a supplemented hormonal epithelial medium (SHEM). The SHEM was composed of 950 ml of Dulbecco's modified minimal essential medium (DMEM)/F-12 medium in which DMEM and Ham F12 are mixed in a ratio of 1:1, 50 ml of fetal bovine serum (FBS), 5 ng of a human recombinant epidermal growth factor (EGF), 28 mg of phosphoethanolamine, lx insulin-transferrin-selenium (ITS, Gibco), and 1× penicillin-streptomycin (Gibco). Afterward, the limbal tissue cut into 8 sections with a length of 4 mm according to the method described in Example 1-1 was put on a polyester membrane to dispose an epithelial part face-up, and cultured under an air-liquid interface condition. After 72 hours of culturing, the presence of an encircling island of outgrowth cells were confirmed, and then the medium was replaced with a fresh medium that just covered a surface of the explant, every 72 hours. Here, the cells were cultured with 10 μM of the Wnt inhibitor (IWP2) or 3 μM of the GSK3 inhibitor (CHIR99021), and then experiments that will be described below were performed. Limbal explant outgrowth cells were washed with PBS, and lysed with a lysis buffer containing phosphatase inhibitor cocktail 2 (Sigma-Aldrich) and protease inhibitor cocktail (Roche Diagnostics). A lysate was boiled with a sample-loading buffer for 10 minutes and then centrifuged, resulting in isolation of a supernatant containing proteins in the cells, and a protein concentration was quantified using a BCA Protein Assay kit (Thermo Fisher Scientific, Rockford, Ill.). Afterward, equal amounts of protein in cell lysates were separated by 10% SDS-polyacrylamide gel electrophoresis (SDS-PAGE) under reducing conditions and electro-transferred to a PVDF membrane (Millipore, Billerica, Mass.). Afterward, The membrane was blocked with 5% skim milk in PBS containing 0.1% Tween 20, incubated at 4° C. for 18 h with primary mouse monoclonal antibodies (Abs) recognizing, β-catenin (BD Biosciences), ABCG2 (Abcam), Krt3 (Abcam) or a rabbit polyclonal antibody recognizing p63α (Abcam). After the washes, the membrane was incubated with a horseradish peroxidase-binding anti-mouse or anti-rabbit secondary antibody at room temperature for 1 hour. The membrane incubating with the secondary antibody was washed with 0.1% Tween 20-added PBS three times, treated with an ECL solution (Amersham Biosciences, Sweden) as a chemiluminescence reagent and developed, thereby analyzing an expression level of a protein to be observed. Also, to correct protein levels of the samples, a mouse monoclonal anti-β-actin primary antibody reacted with the membrane, and subsequent procedures were the same as described above. To identify effects of the Wnt/β-catenin signaling on LSC differentiation during the limbal explant culture, expression levels of the LSC markers p63α and ABCG2, and the differentiation marker Krt3 protein in the explant outgrowth cells were detected by western blot analysis according to the method described in Example 1-5.
(In general: In western blotting, separated proteins are transferred to a membrane and probed.)

Experiment [6] concerns human limbal epithelial cells. The experiment in a line: Viable cell count / cell yield in isolated limbal epithelial cell (single cell) culture. The format is cell-based. The note with it: for Cell count, Mean: Epithelial cells (single cell culture), Table 1. The method, then:
as §1
According to Examples 2 to 4, it was identified that, in the limbal explant culture, the Wnt/β-catenin signaling is involved in the stimulation of explant outgrowth proliferation per unit area, and sternness improvement and differentiation inhibition of LSCs. Accordingly, an experiment was conducted to confirm whether the same effects as described above would be obtained, even when limbal epithelial cells were dissociated according to the method described in Example 1-3, and cultured as single cells. To this end, the limbal explant outgrowth cells according to the method described in Example 1-2 and the cells proliferated from the limbal epithelial cells according to the method described in Example 1-3 were harvested, and each type of cells was subjected to FACS analysis to measure a JC1^low ratio.
Based on the results of Example 6-1, cells cultured by the same method as described above were recovered to measure viable cell counts, yields of the limbal epithelial cells were measured.

In the case of `Cc1c[nH]c(-c2cnc(NCCNc3ccc(C#N)cn3)nc2-c2ccc(Cl)cc2Cl)n1` [CHIR99021], in experiment [1], the “% JC1^low, Mean” value was determined as 6.4%; the “JC1 exclusion cell cohort (JC1^low)” value came out at 10.9±1.3%; the “percentage in a lower left quadrant (LLQ)” value is reported as 50.7±10.1%. Moreover, the “colony forming efficiency (CFE)” value in experiment [2] is reported as “remarkably lower CFE”. Also, in experiment [3], the stained outgrowth area result is given as “smaller area”; the cell yields entry is “significantly decreased”; the “outgrowth proliferation rates of the explant” value is given as “sequentially decreased”; the “Cell count, Mean” value is recorded as 0.8 1 × 10^5. Besides, in experiment [4], the “% JC1^low, Mean” value amounted to 23.9%. For the same compound, in experiment [5], the “expression of the differentiation marker Krt3” value is listed as “increased”, the “protein expression of LSC marker ABCG2” value is listed as “remarkably decreased” and the “protein expression of LSC marker p63α” value is given as “remarkably decreased”. In experiment [6], the “Cell count, Mean” value was 7.0 1 × 10^5. In addition, the “cell yields (viable cell counts)” value in experiment [6] (single cell culture of limbal tissues (FIG. 6)) is “very low”.
On to `Cc1ccc2nc(NC(=O)CSc3nc4c(c(=O)n3-c3ccccc3)SCC4)sc2c1` [IWP2, N-(6-Methyl-2-benzothiazolyl)-2-[(3,4,6,7-tetrahydro-4-oxo-3-phenylthieno[3,2-d]pyrimidin-2-yl)thio]-acetamide], for which, in experiment [1], the “% JC1^low, Mean” value stood at 27.9%; the “JC1 exclusion cell cohort (JC1^low)” value was 29.6±2.6%; the “percentage in a lower left quadrant (LLQ)” value turned out to be 72.8±1.9%. Further, in experiment [2], the “colony forming efficiency (CFE)” value is on record as “remarkably higher CFE”. Also, the cell density result in experiment [3] (10 μM IWP2, cells/mm^2, compared with control and CHIR99021 group (FIG. 2d)) is listed as “highest cell density”. In experiment [3], the stained outgrowth area result was “subsequently increased”; the cell yields entry is on record as “no difference in cell yields”; the “outgrowth proliferation rates of the explant” value was “sequentially decreased”; the “Cell count, Mean” value is given as 4.3 1 × 10^5. The “% JC1^low, Mean” value in experiment [4] came to 9.8%. Moreover, in experiment [5], the “expression of the differentiation marker Krt3” value is on record as “barely expressed”, the “protein expression of LSC marker ABCG2” value is recorded as “remarkably increased” and the “protein expression of LSC marker p63α” value was “remarkably increased”. In addition, the “Cell count, Mean” value in experiment [6] is 4.1 1 × 10^5.
